# Results from patent US20250101032A1, “EXATECAN DERIVATIVES AND ANTIBODY-DRUG CONJUGATES THEREOF” (priority 2021, published 2025).
# Legend:
# physchem = details: 25 °C, pH 7.4, aqueous buffer, kinetic from dmso stock
# Method: In-vitro kinetic solubilities of the compounds in PBS pH 7.4 buffer at 25° C. were determined by diluting compounds from 100% dimethyl sulfoxide (DMSO) into PBS buffer and measuring absorbance at 490, 590 and 650 nm. Stock concentrations in 100% DMSO were provided at 1-6 mM in 100% DMSO. Kinetic solubilities were determined by diluting test compounds from 100% DMSO into PBS pH 7.4 buffer, as duplicate, 10 point 2-fold serial dilution starting at 100× dilution of stock DMS solution into PBS buffer in a clear, flat bottom polystyrene assay plates. Total assay volume was 200 microliters. Solutions were mixed by plate shaking, incubated for 30 m at 25° C., and absorbance was read at 490, 590 and 650 nm. […] in PBS buffer was used as a blank. For each test compound, average optical density (GD) at each concentration was determined by averaging the blank corrected sum of absorption at 490 nm, 590 nm and 650 nm, over duplicate measurements. Turbidity threshold optical density value was set as a sum of mean plus two standard deviations of the mean of absorbances at 490, 590 and 650 nm for 1% (v/v) DMSO in PBS pH 7.4 buffer. Highest soluble concentration (micromolar) corresponded to the highest concentration at which average optical density was below optical density value set for turbidity threshold (Table 4). Amiodarone and propranolol were used as low and high solubility controls respectively.
# SKBR3 = assay: In vitro cytotoxicity assay (CellTiter-Glo), SKBR3; assay type: cell-based, Human; details: Homo sapiens, SK-BR-3, 144 h, read-out: Cytotoxicity IC50
# Method: (§1) Human tumor cell lines, SK-BR-3, NCI-H292, HT-29, MCF-7, NCI-N87, and FaDu were obtained from ATCC. NCI-H292, HT-29, MCF-7, and NCI-N87 cells were cultured in RPMI-1640 media (Gibco, Life Technologies) supplemented with 10% v/v heat inactivated FBS (Corning), FaDu cells were maintained in DMEM media (Gibco, Life Technologies) supplemented with 10% v/v heat inactivated FBS (Corning). SK-BR-3 cells were maintained in McCoys 5A medium (Gibco, Life Technologies) supplemented with 10% […] heat inactivated FBS (Corning) at 37° C. in a humidified incubator containing 5% CO2.
# (§2) Lyophilized compounds were dissolved in 100% dry DMSO, aliquots frozen and stored at −80° C. Concentration and purity of compound stock solutions in DMSO were determined by RP-HPLC Agilent 1100 platform with 1200 DAD and SofTA ELSD detectors, and the Agilent 6150 MS system (UV/VIS, ELSD purity and MS compound identity confirmation). Shimadzu 3.0 mm×30 mm XR ODS 2.2 μm column was run at 50° C., 1.5 mL/min. Solvent A: 0.1% Formic acid in water, Solvent B: 0.08% Formic acid in methanol-Gradient: 5%-100% B in 3.0 min, 100% solvent B for 0.3 min. Concentration of compounds in 100% DMSO determined by ELS ranged from 1-6 mM.
# (§3) Cells were plated in 96-well white flat-bottomed plates (Corning) at 2.0×10^3 cells per well in 100 μL culture medium. After incubation for 24 hours, test compounds were added at a range of concentrations as ten point serial dilution as duplicates or triplicates. Following further incubation for 6 days 37° C., 5% CO2, cell viability was assessed with the use of a CellTiter-Glo Luminescent Cell Viability Assay (Promega). Luminescence was measured using the GloMax instrument (Promega). […] For a subset of payloads, each treatment was independently repeated two to eight times, and IC50 values were averaged. […] Standard deviation (stdev) is shown as (N/A) for treatment performed once.
# HT29 = assay: In vitro cytotoxicity assay (CellTiter-Glo), HT29; assay type: cell-based, Human; details: Homo sapiens, HT-29, 144 h, read-out: Cytotoxicity IC50
# Method: as §1, §2, §3
# NCI-H292 = assay: In vitro cytotoxicity assay (CellTiter-Glo), NCI-H292; assay type: cell-based, Human; details: Homo sapiens, NCI-H292, 144 h, read-out: Cytotoxicity IC50
# Method: as §1, §2, §3
# MCF7 = assay: In vitro cytotoxicity assay (CellTiter-Glo), MCF7; assay type: cell-based, Human; details: Homo sapiens, MCF7, 144 h, read-out: Cytotoxicity IC50
# Method: as §1, §2, §3
# NCI-N87 = assay: In vitro cytotoxicity assay (CellTiter-Glo), NCI-N87; assay type: cell-based, Human; details: Homo sapiens, NCI-N87, 144 h, read-out: Cytotoxicity IC50
# Method: as §1, §2, §3
# FaDu = assay: In vitro cytotoxicity assay (CellTiter-Glo), FaDu; assay type: cell-based, Human; details: Homo sapiens, FaDu, 144 h, read-out: Cytotoxicity IC50
# Method: as §1, §2, §3
# SKOV3 = assay: In vitro cytotoxicity assay (CellTiter-Glo), SKOV3; assay type: cell-based; details: Homo sapiens, SK-OV-3, 144 h, read-out: Cytotoxicity IC50
# Method: (§4) Lyophilized compounds were dissolved in 100% dry DMSO, aliquots frozen and stored at −80° C. […] Shimadzu 3.0 mm×30 mm XR ODS 2.2 μm column was run at 50° C., 1.5 mL/min. Solvent A: 0.1% Formic acid in water, Solvent B: 0.08% Formic acid in methanol-Gradient: 5%-100% B in 3.0 min, 100% solvent B for 0.3 min.
# as §3
# BXPC3 = assay: In vitro cytotoxicity assay (CellTiter-Glo), BXPC3; assay type: cell-based; details: Homo sapiens, BXPC-3, 144 h, read-out: Cytotoxicity IC50
# Method: as §4, §3
SMILES,solubility at 30 min (physchem) [µM],IC50 (SKBR3) [nM],IC50 (HT29) [nM],IC50 (NCI-H292) [nM],IC50 (MCF7) [nM],IC50 (NCI-N87) [nM],IC50 (FaDu) [nM],IC50 (SKOV3) [nM],IC50 (BXPC3) [nM]
CC[C@@]1(O)C(=O)OCc2c1cc1n(c2=O)Cc2c-1nc1cc(F)c(C)c3c1c2[C@@H](NCc1cnnn1CCO)CC3 [Compound 109],17,7.3,56.8,26.1,12.8,29.3,8.3,32.4,10.8
CC[C@@]1(O)C(=O)OCc2c1cc1n(c2=O)Cc2c-1nc1cc(F)c(C)c3c1c2[C@@H](NS(=O)(=O)CCCO)CC3 [Compound 110],18,7.6,28.6,18.8,22.4,18.2,15.6,59.2,15.7
CC[C@@]1(O)C(=O)OCc2c1cc1n(c2=O)Cc2c-1nc1cc(F)c(C)c3c1c2[C@@H](Nc1c(NCC(O)CO)c(=O)c1=O)CC3 (stereo partly drawn) [Compound 115],23,62.8,155,128,47,127,56.1,174,55
CC[C@@]1(O)C(=O)OCc2c1cc1n(c2=O)Cc2c-1nc1cc(F)c(C)c3c1c2[C@@H](NC(=O)CCC(=O)NCC(O)CO)CC3 (stereo partly drawn) [Compound 117],30,474,2910,888,342,1450,234,1090,412
CC[C@@]1(O)C(=O)OCc2c1cc1n(c2=O)Cc2c-1nc1cc(F)c(C)c3c1c2[C@@H](NC(=O)NCC(O)CO)CC3 (stereo partly drawn) [Compound 118],30,23.9,291,88.4,45.9,96.6,17.5,96.7,52.7
CC[C@@]1(O)C(=O)OCc2c1cc1n(c2=O)Cc2c-1nc1cc(F)c(C)c3c1c2[C@@H](Nc1c(O)c(=O)c1=O)CC3 [Compound 129],22,169,282,208,79.3,300,92.9,265,134
CC[C@@]1(O)C(=O)OCc2c1cc1n(c2=O)Cc2c-1nc1cc(F)c(C)c3c1c2[C@@H](N(CCO)C(C)=O)CC3 [Compound 136],23,23.7,36.8,16.3,18.4,40.2,5.2,98.4,24.9
"CC[C@@]1(O)C(=O)OCc2c1cc1n(c2=O)Cc2c-1nc1cc(F)c(C)c3c1c2[C@@H](N)CC3 [Exatecan, exatecan]",24,0.5,1,1.3,0.4,1.2,0.6,0.7,0.3
